Source: article PMC10006169, “A phase I trial of LXS196, a protein kinase C (PKC) inhibitor, for metastatic uveal melanoma” (British Journal of Cancer, 2023)

System: patients with MUM
Assay: Adverse events suspected to be study drug related (NCI-CTCAE v4.03)
Format: in vivo, human
Method: Routine safety assessments, including laboratory assessments, physical examinations, vital signs and electrocardiograms (ECGs), were conducted at regular intervals throughout the study and more frequently as needed following patient assessment by the treating physician. Adverse events (AEs) were assessed continuously according to the National Cancer Institute Common Terminology Criteria for Adverse Events (NCI-CTCAE) v4.03.

CC1(N)CCN(c2cccnc2NC(=O)c2nc(-c3ncccc3C(F)(F)F)cnc2N)CC1 [LXS196]
7 (46.7) n (%): Fatigue, all grades (300 mg QD)
4 (26.7) n (%): Diarrhoea, all grades (300 mg QD)
3 (20.0) n (%): ALT increased, all grades (300 mg QD) | Asthenia, all grades (300 mg QD)
11 (61.1) n (%): Diarrhoea, all grades (300 mg BID (RDE))
2 (50.0) n (%): Constipation, all grades (200 mg QD) | Nausea, all grades (200 mg QD) | Patients with ≥1 AE, grade ≥3 (200 mg QD) | Vomiting, all grades (200 mg QD)
7 (38.9) n (%): Vomiting, all grades (300 mg BID (RDE))
1 (25.0) n (%): Asthenia, all grades (200 mg QD) | Blood creatinine increased, all grades (200 mg QD) | Diarrhoea, all grades (200 mg QD) | Nausea, grade ≥3 (200 mg QD) | Vomiting, grade ≥3 (200 mg QD)
14 (77.8) n (%): Nausea, all grades (300 mg BID (RDE))
4 (22.2) n (%): Asthenia, all grades (300 mg BID (RDE)) | Dry skin, all grades (300 mg BID (RDE)) | Rash, all grades (300 mg BID (RDE))
1 (5.6) n (%): ALT increased, grade ≥3 (300 mg BID (RDE)) | AST increased, grade ≥3 (300 mg BID (RDE)) | Constipation, all grades (300 mg BID (RDE)) | Diarrhoea, grade ≥3 (300 mg BID (RDE))
9 (60.0) n (%): Nausea, all grades (300 mg QD)
2 (11.1) n (%): Blood creatinine increased, all grades (300 mg BID (RDE)) | Patients with ≥1 AE, grade ≥3 (300 mg BID (RDE))
17 (94.4) n (%): Patients with ≥1 AE, all grades (300 mg BID (RDE))
3 (16.7) n (%): AST increased, all grades (300 mg BID (RDE)) | Fatigue, all grades (300 mg BID (RDE)) | Hypotension, all grades (300 mg BID (RDE))
4 (100) n (%): Patients with ≥1 AE, all grades (200 mg QD)
1 (33.3) n (%): Constipation, all grades (100 mg QD) | Diarrhoea, all grades (100 mg QD)
1 (6.7) n (%): ALT increased, grade ≥3 (300 mg QD) | AST increased, all grades (300 mg QD) | AST increased, grade ≥3 (300 mg QD) | Blood creatinine increased, all grades (300 mg QD) | Constipation, all grades (300 mg QD) | Dry skin, all grades (300 mg QD) | Hypotension, all grades (300 mg QD)
2 (66.7) n (%): Nausea, all grades (100 mg QD) | Patients with ≥1 AE, all grades (100 mg QD)
0 n (%): ALT increased, all grades (100 mg QD) | ALT increased, grade ≥3 (100 mg QD) | AST increased, all grades (100 mg QD) | AST increased, grade ≥3 (100 mg QD) | Asthenia, all grades (100 mg QD) | Asthenia, grade ≥3 (100 mg QD) | Blood creatinine increased, all grades (100 mg QD) | Blood creatinine increased, grade ≥3 (100 mg QD) | Constipation, grade ≥3 (100 mg QD) | Diarrhoea, grade ≥3 (100 mg QD) | Dry skin, all grades (100 mg QD) | Dry skin, grade ≥3 (100 mg QD) | Fatigue, all grades (100 mg QD) | Fatigue, grade ≥3 (100 mg QD) | Hypotension, all grades (100 mg QD) | Hypotension, grade ≥3 (100 mg QD) | Nausea, grade ≥3 (100 mg QD) | Patients with ≥1 AE, grade ≥3 (100 mg QD) | Rash, all grades (100 mg QD) | Rash, grade ≥3 (100 mg QD) | Vomiting, all grades (100 mg QD) | Vomiting, grade ≥3 (100 mg QD) | ALT increased, all grades (200 mg QD) | ALT increased, grade ≥3 (200 mg QD) | AST increased, all grades (200 mg QD) | AST increased, grade ≥3 (200 mg QD) | Asthenia, grade ≥3 (200 mg QD) | Blood creatinine increased, grade ≥3 (200 mg QD) | Constipation, grade ≥3 (200 mg QD) | Diarrhoea, grade ≥3 (200 mg QD) | Dry skin, all grades (200 mg QD) | Dry skin, grade ≥3 (200 mg QD) | Fatigue, all grades (200 mg QD) | Fatigue, grade ≥3 (200 mg QD) | Hypotension, all grades (200 mg QD) | Hypotension, grade ≥3 (200 mg QD) | Rash, all grades (200 mg QD) | Rash, grade ≥3 (200 mg QD) | Asthenia, grade ≥3 (300 mg BID (RDE)) | Blood creatinine increased, grade ≥3 (300 mg BID (RDE)) | Constipation, grade ≥3 (300 mg BID (RDE)) | Dry skin, grade ≥3 (300 mg BID (RDE)) | Fatigue, grade ≥3 (300 mg BID (RDE)) | Hypotension, grade ≥3 (300 mg BID (RDE)) | Nausea, grade ≥3 (300 mg BID (RDE)) | Rash, grade ≥3 (300 mg BID (RDE)) | Vomiting, grade ≥3 (300 mg BID (RDE)) | Asthenia, grade ≥3 (300 mg QD) | Blood creatinine increased, grade ≥3 (300 mg QD) | Constipation, grade ≥3 (300 mg QD) | Diarrhoea, grade ≥3 (300 mg QD) | Dry skin, grade ≥3 (300 mg QD) | Fatigue, grade ≥3 (300 mg QD) | Hypotension, grade ≥3 (300 mg QD)
5 (27.8) n (%): ALT increased, all grades (300 mg BID (RDE))
